Here are results for 2 compounds from patent US20230414657A1, “Novel compositions for neutralizing toxic effects of hydrogen peroxide in living cells or tissues” (Dzala LLC, priority 2020, published 2023).

For data set [1], the system named is C. elegans. The data set can be described thus: Oxygen consumption rate (OCR), Seahorse XFe96. As to conditions: H2O2 alone (100 mM). It is filed as in vivo. As to the method:
Oxygen consumption of worms was measured with a Seahorse XFe96 system (Seahorse Bioscience, North Billerica, MA), as previously described^4. L3 larvae of the different strains were grown on plates or in liquid culture and supplemented for 2-4 days as described for each experiment. After removing bacteria and debris, approximately 100 worms were pipetted into each well of a 96-well Seahorse XF^e assay plate and OCR was measured until it stabilized. Then, 3 subsequent measurements were made at 6.5-min intervals. Finally, the exact number of worms in each well was counted and used for normalization. A small number of abnormal readings were also filtered out at this stage. On average, 7-8 wells (technical replicates) were used for each condition. Normalized OCR values were averaged for the last 3 measurements for each strain and condition. Four biological replicates were analyzed for each condition.

In data set [2] the test system is C. elegans. As for the experimental part:
A population of synchronized L1 larvae was added to 30-ml glass tubes containing 2.5 ml of S-complete medium (liquid culture)^2 and NA22 or induced RNAi bacteria at an OD600 of 1.9. […] Worms were incubated at 15° C. and 150 rpm in a shaking incubator for 2-6 days, refreshing the medium every 2 days.
Briefly, for the treatment during larval development worms were incubated in liquid culture under different conditions from L1 until L4, and then transferred onto control NGM plates until death. During the reproductive period (days 1-8), worms were transferred to fresh plates every other day to separate them from their progeny. […] Worms that were missing, displaying internal egg hatching, losing vulva integrity, and burrowing into NGM agar were censored. Progeny number and embryonic lethality was determined the day after transferring the adult animals to fresh plates. Statistical analyses of lifespan were calculated by Log-rank (Mantel-Cox) tests on the Kaplan-Meier curves in GraphPad Prism. For progeny number and embryonic lethality, the significance of differences between conditions was determined using an unpaired t-test in GraphPadPrism 8.0. All experiments were performed in triplicate.

Data set [3] has as its system gox-1, ghpr-1, gcst-1, mel-32 and gcs-1 genes. The data set is described as follows: Quantitative real-time PCR of glycolate pathway genes. It counts as in vivo, C. elegans. As for the experimental part:
The differential expression of F41E6.5 (gox-1), C31C9.2 (ghpr-1), gcst-1, mel-32 and gcs-1 genes was measured using qRT-PCR. ˜5000 L1 N2 worms were exposed to each condition for 3 days at 15° Cas described above and then washed three times with H2O. Total RNA was isolated using the RNeasy Mini Kit (Qiagen) and equal amounts of all samples were reverse transcribed with SuperScript Ill (Invitrogen) using oligo(dT) 12-18 primers. cDNA quality was tested using standard PCR. qRT-PCR was performed using pre-designed TaqMan Gene Expression Assay (ThermoFischer Scientific) with at least three samples in triplicates. For the relative quantification of gene expression levels, the 2^−ΔΔCT method and results were normalized to the expression level of the cdc-42 gene. Expression levels were averaged over technical and biological replicates, […]

Data set [4] relates to C. elegans. The data set can be described thus: NADPH and NADP+ quantification by LC-MS. It is filed as in vivo.
Procedure: To measure NADP^+ and NADPH from C. elegans, 10000-15000 L1 worms were exposed to each condition in duplicates for 3 days and then washed four times with H2O. […] 25 µM solutions of each nucleotide were treated in parallel as standards. Homogenization for 15 min at 4° C. and 300 g was carried out in a TissueLyser II (Qiagen) after adding ⅓ volume of 0.5 mm zirconium beads. The resulting mixture was centrifuged at 13,000 g and the supernatant transferred to a new tube.
LC-MS/MS analysis of the samples was performed on a high-performance liquid chromatography (HPLC) system (1200 Agilent) coupled online to G2-S QTOF (Waters). For normal phase chromatography Bridge Amide 3.5 ml (2.1×100 mm) column from Waters was used. The mobile phase composed of eluent A and eluent B (40% acetonitrile, 0.1 mM ammonium acetate and 0.01% NH40H) was applied with the following gradient program: Eluent B, from 0% to 100% within 18 min; 100% from 18 min to 21 min; 0% from 21 min to 26 min. The flow rate was set at 0.3 ml/min. The spray voltage was set at 3.0 kV and the source temperature was set at 120° C. Nitrogen was used as both cone gas (50 L/h) and desolvation gas (800 L/h), and argon as the collision gas. MS^E mode was used with Bridge Amide 3.5 µl (2.1×100 mm) column in ESI negative ionization polarity for the detection of the nucleosides. Mass chromatograms and mass spectral data were acquired and processed by MassLynx software (Waters). Three and four biological replicates were analyzed for each condition of mel-32 RNAi and EV, respectively.
For data set [5], the system named is C. elegans. The data set can be described thus: Quantification of glutathione (GSH/GSSG-Glo). It is filed as in vivo. As to the method:
Sample preparation was performed as described previously with some modifications^6. From each condition 10,000 synchronized animals were harvested and washed 3 times with sterile water. […] To thoroughly lyse the worms, 5 cycles of freezing and thawing were performed in a water bath at 37° C., followed by a 1-min sonication. The samples were then centrifuged and the supernatant tested for protein estimation and GSH quantification. Total GSH, GSSG, and GSH/GSSG ratios were quantified using the GSH/GSSG-Glo assay kit (Promega) following the instructions of the manufacturer. Briefly, each sample was tested in triplicate in 96-well culture plates with total glutathione or GSSG lysis reagent, for total glutathione or GSSG measurement, respectively. The GSH probe, luciferin-NT, was converted to luciferin, which is coupled to a firefly luciferase. The plates were then read in an […] plate reader (Perkin Elmer, United States). The GSSG value was subtracted from the total glutathione to calculate GSH levels and GSH/GSSG ratio. Four biological replicates were analyzed for each condition.

Data set [6] relates to C. elegans. The data set is described as follows: Growth rate / worm size. It is filed as in vivo. As to conditions: H2O2 alone (100 mM). As to the method:
Synchronized L1 worms were incubated at 15° C. on plates or in liquid culture and exposed to different conditions as indicated. Single worms were selected randomly from the plates or aliquots were taken from the liquid cultures and added to NGM plates for immediate visualization. 25 worms per treatment were measured at 24-48 hr intervals and all growth curves were done four times.

For data set [7] the following is noted: 0.25% hydrogen peroxide alone in drinking water.
The test system of data set [8] is Staphylococcus aureus bacterial culture (ATCC 25923). The data set is described as follows: Antimicrobial effect on bacterial culture, colony count. It counts as cell-based. As to conditions: 2.5% solution. As to the method: A composition comprising 0.5% Glycine and 0.3% Hydrogen peroxide was prepared on 0.9% sodium chloride solution. Water was sterile purified.
After incubation for 4-5 minutes, sample from each test tube was diluted 1000 times with sterile water, and […] was spread evenly on standard tryptic soy agar petri plate. Plates were incubated at 37° C. for 24 hours and bacterial colonies were counted. As a positive control (100% survival), was taken a sample, where the composition was neutralized by sodium bisulfite instantly (FIG. 10).

As to `OO` [H2O2, hydrogen peroxide], the “Respiration rate (OCR)” value in data set [1] is recorded as “decline in the respiration rate”. The Reproductive capacity result in data set [2] (H2O2 alone) was “reduced reproductive capacity”. This compound showed a Lifespan in data set [2] (exposed to H2O2 alone during larval stages, then control plates, control worms 18.5+/−1.19 days) of 5.88 ± 1.47 days. Further, the “Expression of gcst-1” value in data set [3] (peroxide or glycolate supplementation) is “not significantly altered”. Also, the “Expression of gox-1, ghpr-1, mel-32 and gcs-1” value in data set [3] (worms exposed to different peroxide concentrations, 3 days) is recorded as “significant induction”. In addition, the “Ratio of NADPH to NADP+” value in data set [4] (H2O2 alone (100 mM), 3 days) is recorded as “significantly decreased”; in data set [4] (mel-32 knocked down worms, H2O2 alone) it was “further decline”. In addition, the “Oxidized form of glutathione (GSSG)” value in data set [5] (H2O2 alone (100 mM)) is 513 % of the control. Besides, in data set [5] (H2O2 alone (100 mM), 3 days), the Total glutathione was 51 % of the control. Besides, the GSH/GSSG ratio in data set [5] (H2O2 alone, control 107.5) is listed as 11.3. For the same compound, in data set [5] (peroxide alone vs control), the “Reduction of GSH/GSSG ratio” value is recorded as 10 -fold. In addition, the Growth entry in data set [6] was “growth delay”. Moreover, the Effect on weight result in data set [7] is recorded as “slight positive effect”.

As for `O=S([O-])O.[Na+]` [sodium bisulfite], the “Antimicrobial effect of the neutralizer on itself” value in data set [8] is “no antimicrobial effect”.
